Data from patent US9708336B2, “Metallo-beta-lactamase inhibitors” (priority 2014, dated 2017).
Read-outs that look alike come from different tables or passages of the source.

Tests used:
IMP-1 = IMP-1 (Serratia marcescens, UniProt P52699); experiment: biochemical; type: biochemical; conditions: read-out: IMP-1 IC50
VIM-1 = VIM-1 (Pseudomonas aeruginosa (strain ATCC 15692 / DSM 22644 / CIP 104116 / JCM 14847 / LMG 12228 / 1C / PRS 101 / PAO1), UniProt A0A0F7KYQ8); experiment: Enzyme activity: determination of IC50, fluorescence assay with CCF2-FA substrate (VIM-1); type: biochemical
[1] = system: Serratia marcescens expressing IMP-1 (CL5741); experiment: Antibiotic potentiation activity: synergistic concentration (MITC95) with imipenem, OD600 growth; type: cell-based
Procedure, shortened: (§1)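 Overnight colonies (35 °C) were suspended in saline, diluted 1:100 into 1.1× CAMHB, and exposed to test compound with imipenem at 4 μg/ml (optionally 1 μg/ml) in assay. After 22–24 h at 35 °C, growth was read by absorbance.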

[2] = system: Escherichia coli expressing NDM-1 (CLB30016); experiment: as above; type: cell-based
Procedure, shortened: as §1

[3] = system: Klebsiella pneumoniae expressing VIM-1 (IHMA599644); experiment: as above; type: cell-based
Procedure, shortened: as §1

NDM-1 = NDM-1 (Klebsiella pneumoniae, UniProt C7C422); experiment: biochemical; type: biochemical
[4] = IMP-1 enzyme, CCF2-FA substrate
[5] = VIM-1 enzyme, CCF2-FA substrate, read-out: VIM-1 IC50
[6] = Serratia marcescens CL5741 (IMP-1), 95% growth inhibition
[7] = (CLB30016, NDM-1), 95% growth inhibition
[8] = Klebsiella pneumoniae IHMA599644 (VIM-1), 95% growth inhibition
[9] = NDM-1 enzyme, CCF2-FA substrate, read-out: NDM-1 IC50
[10] = fluorescence assay with CCF2-FA substrate
[11] = fluorescence assay with CCF2-FA substrate, read-out: VIM-1 IC50
[12] = concentration giving 95% inhibition of bacterial growth
[13] = fluorescence assay with CCF2-FA substrate, read-out: NDM-1 IC50
[14] = IMP-1 enzyme, CCF2-FA fluorescence assay
[15] = Serratia marcescens expressing IMP-1 (CL5741), 95% growth inhibition
[16] = Escherichia coli expressing NDM-1 (CLB30016), 95% growth inhibition
[17] = Klebsiella pneumoniae expressing VIM-1 (IHMA599644), 95% growth inhibition
[18] = NDM-1 enzyme, CCF2-FA fluorescence assay, read-out: NDM-1 IC50
[19] = CL5741 (IMP-1), 95% inhibition of bacterial growth
[20] = CLB30016 (NDM-1), 95% inhibition of bacterial growth
[21] = IHMA599644 (VIM-1), 95% inhibition of bacterial growth

Sequence of IMP-1 (P52699 whole entry, looked up): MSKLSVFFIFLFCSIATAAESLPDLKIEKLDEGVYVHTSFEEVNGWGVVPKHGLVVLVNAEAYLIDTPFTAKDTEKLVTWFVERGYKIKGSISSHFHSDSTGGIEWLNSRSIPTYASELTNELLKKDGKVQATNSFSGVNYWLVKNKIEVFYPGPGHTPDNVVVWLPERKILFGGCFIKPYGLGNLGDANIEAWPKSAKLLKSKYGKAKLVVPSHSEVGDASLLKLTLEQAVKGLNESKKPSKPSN
Sequence of NDM-1 (C7C422 whole entry, looked up, species assumed): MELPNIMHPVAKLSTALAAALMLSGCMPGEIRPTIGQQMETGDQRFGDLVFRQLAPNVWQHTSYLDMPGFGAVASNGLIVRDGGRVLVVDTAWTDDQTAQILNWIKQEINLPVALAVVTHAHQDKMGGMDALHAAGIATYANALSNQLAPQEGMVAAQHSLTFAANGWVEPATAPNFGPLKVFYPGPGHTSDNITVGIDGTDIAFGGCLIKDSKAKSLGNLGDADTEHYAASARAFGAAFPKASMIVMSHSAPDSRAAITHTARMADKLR

In the case of NC(=O)CCc1ccc(-c2cccc3sc(N)nc23)c(-c2nn[nH]n2)c1S(N)(=O)=O [Example 539, 3-(4-(2-Aminobenzo[d]thiazol-4-yl)-2-sulfamoyl-3-(2H-tetrazol-5-yl)phenyl)propanamide], the IC50 (IMP-1; [4]) is reported as 7.62 nM, the IC50 (VIM-1; [5]) is reported as 1.85 nM and the “Serratia marcescens MITC95” value [1, 6] is reported as 12.5 µM. For the same molecule, the “Escherichia coli MITC95” value [2, 7] was 3.125 µM, the “Klebsiella pneumoniae MITC95” value [3, 8] was 25 µM and the IC50 (NDM-1; [9]) was 0.192 nM.

NS(=O)(=O)c1cccc(C2CCC(O)CC2)c1-c1nn[nH]n1 (stereo not drawn) [Example 171, 3-(4-hydroxycyclohexyl)-2-(2H-tetrazol-5-yl)benzenesulfonamide] was tested, and the IC50 (IMP-1; [10]) was 119 nM, the IC50 (VIM-1; [11]) was 128 nM and the “Serratia marcescens expressing IMP-1 (CL5741) MITC95” value [1, 12] was 6.25 µM. For the same molecule, the “Escherichia coli expressing NDM-1 (CLB 30016) MITC95” value [2, 12] was 2.344 µM, the “Klebsiella pneumoniae expressing VIM-1 (IHMA 599644) MITC95” value [3, 12] was 25 µM and the IC50 (NDM-1; [13]) was 8.56 nM.

CC(NCc1ccc(-c2cccc(S(N)(=O)=O)c2-c2nnn[nH]2)cc1)c1nn[nH]n1 (stereo not drawn) [Example 353, 2-(1H-tetrazol-5-yl)-4′-({[1-(2H-tetrazol-5-yl)ethyl]amino}methyl)biphenyl-3-sulfonamide] was tested, and the IC50 (IMP-1; [14]) was 28 nM, the IC50 (VIM-1; VIM-1 IC50, VIM-1 enzyme, CCF2-FA fluorescence assay) was 689 nM and the “Serratia marcescens MITC95” value [1, 15] was 1.172 µM. The “Escherichia coli MITC95” value [2, 16] was 2.344 µM, the “Klebsiella pneumoniae MITC95” value [3, 17] was 100 µM and the IC50 (NDM-1; [18]) was 4.1 nM.

For NS(=O)(=O)c1c(CC2CCNCC2)ccc(-c2ccc(C3CNC3)cc2)c1-c1nnn[nH]1 [Example 597, 3-[4-(azetidin-3-yl)phenyl]-6-(4-piperidylmethyl)-2-(1H-tetrazol-5-yl)benzenesulfonamide], the IC50 (IMP-1; [4]) was 46 nM, the IC50 (VIM-1; [5]) was 1.24 nM and the “Serratia marcescens MITC95” value [1, 6] was 3.125 µM. For the same molecule, the “Escherichia coli MITC95” value [2, 7] was 1.563 µM, the “Klebsiella pneumoniae MITC95” value [3, 8] was 1.563 µM and the IC50 (NDM-1; [9]) was 8.86 nM.

For N=C(N)NC[C@H]1CC[C@@H](c2ccc(C(F)(F)F)c(S(N)(=O)=O)c2-c2nnn[nH]2)CC1 [Example 502, 3-(cis 4-(guanidinomethyl)cyclohexyl)-2-(1H-tetrazol-5-yl)-6-(trifluoromethyl)benzenesulfonamide], the IC50 (IMP-1; [4]) was 1.19 nM, the IC50 (VIM-1; [5]) was 1.44 nM and the “Serratia marcescens MITC95” value [1, 6] was 1.563 µM. For the same molecule, the “Escherichia coli MITC95” value [2, 7] was 1.563 µM, the “Klebsiella pneumoniae MITC95” value [3, 8] was 9.375 µM and the IC50 (NDM-1) was 0.52 nM.

For CC(C)(O)C1CN(Cc2ccc(-c3cccc(S(N)(=O)=O)c3-c3nnn[nH]3)cc2)C1 [Example 336, 4′-((3-(2-hydroxypropan-2-yl)azetidin-1-yl)methyl)-2-(1H-tetrazol-5-yl)-[1,1′-biphenyl]-3-sulfonamide], the IC50 (IMP-1; [14]) was 379 nM, the IC50 (VIM-1; VIM-1 enzyme, CCF2-FA fluorescence assay, read-out: VIM-1 IC50) was 634 nM and the “Serratia marcescens MITC95” value [1, 15] was 4.688 µM. The “Escherichia coli MITC95” value [2, 16] was 0.7813 µM, the “Klebsiella pneumoniae MITC95” value [3, 17] was 100 µM and the IC50 (NDM-1; [18]) was 34 nM.

In the case of N[C@@H]1CN(c2ccc(C(F)(F)F)c(S(N)(=O)=O)c2-c2nnn[nH]2)CC12CC2 [Example 754, 3-[(7S)-7-amino-5-azaspiro[2.4]hept-5-yl]-2-(1H-tetrazol-5-yl)-6-(trifluoromethyl) benzenesulfonamide], the IC50 (IMP-1; [10]) is reported as 869 nM, the IC50 (VIM-1; [11]) is reported as 7.67 nM and the “Serratia marcescens MITC95” value [1, 19] is reported as 50 µM. For the same molecule, the “Escherichia coli MITC95” value [2, 20] was 25 µM, the “Klebsiella pneumoniae MITC95” value [3, 21] was 12.5 µM and the IC50 (NDM-1; [13]) was 596 nM.

NS(=O)(=O)c1cccc(-c2cccc3sc(N[C@H]4CC[C@H](N)CC4)nc23)c1-c1nnn[nH]1 [Example 641, 3-[2-[(4-aminocyclohexyl)amino]-1,3-benzothiazol-4-yl]-2-(1H-tetrazol-5-yl)benzenesulfonamide] was tested, and the IC50 (IMP-1; [4]) was 26.5 nM, the IC50 (VIM-1; [5]) was 4.46 nM and the “Serratia marcescens MITC95” value [1, 6] was 25 µM. For the same molecule, the “Escherichia coli MITC95” value [2, 7] was 6.25 µM, the “Klebsiella pneumoniae MITC95” value [3, 8] was 25 µM and the IC50 (NDM-1; [9]) was 1.02 nM.

In the case of NCCN1CC(c2ccc(-c3ccc(C(F)(F)F)c(S(N)(=O)=O)c3-c3nnn[nH]3)cc2)C1 [Example 812, 4′-[1-(2-aminoethyl)azetidin-3-yl]-2-(1H-tetrazol-5-yl)-4-(trifluoromethyl)biphenyl-3-sulfonamide], the IC50 (IMP-1; [10]) is reported as 5.77 nM, the IC50 (VIM-1; [11]) is reported as 3.88 nM and the “Serratia marcescens MITC95” value [1, 19] is reported as 6.25 µM. The “Escherichia coli MITC95” value [2, 20] was 1.563 µM, the “Klebsiella pneumoniae MITC95” value [3, 21] was 12.5 µM and the IC50 (NDM-1; [13]) was 2.7 nM.
